Here are results for six compounds from publication PMC6119644 (Bioorganic & medicinal chemistry letters, 2018).

For one assay, the target named is GOT1 (Homo sapiens, UniProt P17174). In words: MDH coupled GOT1 enzymatic assay. It counts as biochemical. The settings on record: MDH coupled GOT1 enzymatic assay.
Chain of GOT1 (P17174 whole entry): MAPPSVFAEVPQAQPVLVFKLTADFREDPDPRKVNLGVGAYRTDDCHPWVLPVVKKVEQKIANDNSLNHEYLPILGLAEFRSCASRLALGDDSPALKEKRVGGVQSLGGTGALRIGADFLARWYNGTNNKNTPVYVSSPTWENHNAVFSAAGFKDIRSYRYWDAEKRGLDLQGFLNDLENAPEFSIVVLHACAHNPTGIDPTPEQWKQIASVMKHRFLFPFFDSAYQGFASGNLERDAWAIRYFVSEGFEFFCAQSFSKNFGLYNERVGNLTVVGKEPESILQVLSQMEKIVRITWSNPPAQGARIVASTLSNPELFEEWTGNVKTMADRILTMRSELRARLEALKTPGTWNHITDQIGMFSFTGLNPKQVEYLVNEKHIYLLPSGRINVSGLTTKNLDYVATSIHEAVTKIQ
In the case of `O=C(Nc1ccccc1)N1CCN(c2cccc3[nH]ncc23)CC1` [Compound 1j], the “GOT1 inhibition activity (in words)” value is “lack of observed activity”.
In the case of `O=C(Nc1ccccc1)N1CCN(c2cccc3ncccc23)CC1` [Compound 1k], the “GOT1 inhibition activity (in words)” value is given as “lack of observed activity”.
`O=C(NCCc1c[nH]c2ccccc12)Nc1ccccc1` [Compound 3a]: the “GOT1 inhibition activity (in words)” value is on record as “no significant activity”.

The same assay, now with this note: relative to 1a; GOT1 inhibition.
Regarding `O=C(Nc1ccc(Cl)cc1)N1CCN(c2cccc3[nH]ccc23)CC1` [Compound 2c], the enhancement in potency is reported as ~ 10 fold.
Still for that read-out and setting: in the case of `O=C(Nc1ccc(C(F)(F)F)cc1)N1CCN(c2cccc3[nH]ccc23)CC1` [Compound 2d] it was ~ 10 fold.
For the compound `O=C(Nc1cccc(C(F)(F)F)c1)N1CCN(c2cccc3[nH]ccc23)CC1` [Compound 2g], the enhancement in potency is ~ 10 fold.
